Experimental data: patent US20140030260A1, “METHODS AND COMPOSITIONS TO ELIMINATE CHRONIC LYMPHOCYTIC LEUKEMIA AND OTHER HEMATOLOGIC MALIGNANT CELLS IN STROMAL MICROENVIRONMENT FOR CANCER THERAPY” (BOARD OF REGENTS, THE UNIVERSITY OF TEXAS SYSTEM, priority 2010, published 2014)
Entries after “also recorded” stand apart in the source; their conditions may differ.

How the values were obtained:
[1] = system: primary leukemia cells (CLL); test: Viability of primary CLL cells cultured alone or with stromal cells, flow cytometry after annexin-V/PI double-staining; conditions: for effect on the toxicity of selecticine in CLL cells: patient #17, co-culture with various types of marrow cells, 20 μM selecticine
Description: The cells were then treated with 50 μM selecticine for 2 days, and cell viability was measured by flow cytometry analysis after double-staining with annexin-V and PI.
The cells were then treated with 50 or 100 μM selecticine for 2 days. Cell viability was then measured by flow cytometry analysis after double-staining with annexin-V and PI.
The cells were then treated with 50 μM selecticine for 2 days. Cell viability was then measured by flow cytometry analysis after double-staining with annexin-V and PI.
Cell viability was then measured by flow cytometry analysis after double-staining with annexin-V and PI.
CLL cells isolated from two different patients were treated as follow: (1) Control (CLL alone); (2) Selenocystine mixed with the conditioned medium (CM) of stromal cell culture; (3) Medium from stromal cell culture incubated with selenocystine. After an additional 48-h incubation with CLL cells (without stramal), cell viability was measured by flow cytometry analysis after double-staining with annexin-V and PI.
CLL cells (without stromal) were then incubated for 72 hours with: (1) control medium; (2) 200 μM 2-mercaptoethanol (2ME) alone; (3) 50 μM selenocystine alone; (4) Selecticine-02 (50 μM selenocystine+200 μM 2-mercaptoethanol pre-mixed overnight). Cell viability was measured by flow cytometry analysis after double-staining with annexin-V and PI.
The experimental conditions were the same as FIG. 14, except the selenocystine:2ME ration was 5:2 instead of 1:4.
The cells were then treated with 50 mM selenocystine for 2 days.

CLL cells = test: ROS, cellular thiol and glutathione in CLL cells (mitosox Red, CMFDA); format: cell-based, human; conditions: in the presence of stromal cells (HS-5); 50 μM
Description: Mitochondrial ROS levels were stained by mitosox Red (A) and cellular thiol was stained by CMFDA (B).

[2] = system: EBV-immortalized normal lymphocytes; test: Viability of immortalized normal lymphocytes with or without stromal cells, annexin-V/PI flow cytometry; format: cell-based; conditions: not further specified
Description: The numbers indicate % of viable cells.

## CCCCS(=N)(=O)CCC(N)C(=O)O (stereo not drawn) [BSO, reference compound]
[1]
  effect on the toxicity of selecticine in CLL cells: enhanced

## NC(C[Se][Se]CC(N)C(=O)O)C(=O)O (stereo not drawn) [selenocystine, 2-amino-3-(2-amino-2-carboxy-ethyl)selanylselanyl-propanoic acid]
[1]; cultured alone / in the absence of stromal cells
  cytotoxic effect on leukemia (CLL) cells: only moderate cytotoxic effect
[1]; in the presence of bone marrow stromal cells (HS-5), 50 μM, 2 days
  killing of primary CLL cells (cell viability): highly potent cytotoxic effect; also recorded: considerable leukemia cell death
[1]; mixed or incubated with stromal cell culture medium, 48-h incubation with CLL cells without stromal cells
  toxicity to CLL cells after conversion by stromal factor in stromal conditioned medium: highly toxic
CLL cells
  ROS generation in CLL cells (mitochondrial ROS, mitosox Red): significant increase in ROS production

## CC(=O)N[C@@H](CS)C(=O)O [NAC, reference compound]
[1]
  effect on the toxicity of selecticine in CLL cells: protected

## Nc1nc(F)nc2c1ncn2[C@@H]1O[C@H](CO)[C@@H](O)[C@@H]1O [F-ara-A, reference compound]
[1]; patient #10, different types of stromal cells, 50 μM selecticine, 20 μM F-ara-A or 20 μM oxaliplatin, 2 days
  effect of stromal cells on the drug's cytotoxicity in CLL cells: protected

## NC(C[SeH])C(=O)O (stereo not drawn) [selenocysteine, 3-selenyl-2-aminopropanoic acid]
[1]; mechanistic studies
  toxicity to CLL leukemia cells of the active compound formed by stromal cells: highly toxic
[2]
  toxicity to normal cells: low toxicity
